Measurements taken from the NIST ThermoML archive (doi:10.1016/j.fluid.2015.08.008).

What was measured:
[1] = 101.33 kPa, Liquid, Vibrating tube method
[2] = Boiling temperature at pressure P; settings: Liquid, distillation unit - dew point temperature

C1CN=C2CCCN2C1 [1,5-diazabicyclo[4.3.0]non-5-ene]
Settings	Boiling temperature at pressure P [°C]	mass density [kg/m3]
[1], 293.15 K	–	1037.59
[1], 298.15 K	–	1033.58
[1], 303.15 K	–	1029.56
[1], 308.15 K	–	1025.52
[1], 313.15 K	–	1021.49
[1], 318.15 K	–	1017.4
[1], 323.15 K	–	1013.33
[2], 0.71 kPa	85.69	–
[2], 0.91 kPa	90.86	–
[2], 0.92 kPa	91.46	–
[2], 1.39 kPa	98.20	–
[2], 1.41 kPa	98.90	–
[2], 1.87 kPa	105.99	–
[2], 2.81 kPa	114.1	–
[2], 2.86 kPa	114.66	–
[2], 3.37 kPa	117.81	–
[2], 3.88 kPa	120.18	–
[2], 5.11 kPa	127.00	–
[2], 5.53 kPa	128.91	–
[2], 6.11 kPa	131.70	–
[2], 7.15 kPa	134.78	–
[2], 8.11 kPa	139.00	–
[2], 9.4 kPa	142.40	–
[2], 10.12 kPa	144.50	–
[2], 12.14 kPa	149.60	–

C1CCC2=NCCCN2CC1 [1,8-diaza-7-bicyclo[5.4.0]undecene]
[2]
Settings	Boiling temperature at pressure P [°C]
0.51 kPa	102.62
0.71 kPa	110.30
1.01 kPa	116.2
1.31 kPa	122.00
1.51 kPa	124.60
1.71 kPa	127.70
2.01 kPa	130.80
2.31 kPa	133.90
2.51 kPa	136
3.01 kPa	139.72
3.31 kPa	143.00
3.51 kPa	143.80
4.01 kPa	147.87
4.21 kPa	149.07
4.51 kPa	150.98
5.01 kPa	153.77
5.31 kPa	154.70
6.31 kPa	159.30
7.31 kPa	164.1
